Patent US20210267944A1 (BioXcel Therapeutics, Inc., priority 2018, published 2021)
Where “and” joins values, the source holds several entries; their conditions need not be identical. Equal entries are not always repeated. Entries after “also recorded” stand apart in the source; their conditions may differ. Structures can show the parent of a compound that is named as a salt. Where two headings read alike, the source gives them in different places.

Assays:
[1] = test system: healthy, elderly (55-75 years of age) volunteers
Method: Subjects in the initial cohorts were initially healthy, elderly (55-75 years of age) volunteers. Subjects in later cohort were elderly volunteers healthy except for having mild probable SDAT. Both sexes were included in all cohorts.
Each infusion rate was administered for 30 minutes. After 30 minutes, the dose was increased by an additional 0.1 mcg/kg/hr until the subject achieved a predetermined level of sedation as assessed by the Richmond Agitation-Sedation Scale (RASS) or a pre-specified reduction in BP and/or HR. The dosing rate was adjusted for subsequent cohorts based on the results of preceding cohorts. Continuous assessment was made of the level of arousal, BP and HR. […] Statistics were descriptive and correlational in terms of pharmacodynamic and pharmacokinetic relationships.
The participants in cohort 1 were designated by subject codes 11XX and 91XX, and those in cohort 2 were designated by subject codes 12XX. Time needed to resolve refers to the time from the cessation of the infusion to the resolution of the pharmacodynamic effect of the drug on either arousal or blood pressure and heart rate.

[2] = test system: subjects suffering from opiate withdrawal symptoms;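 further: inpatients in opioid withdrawal given intravenous infusion titrated upward every 30 min (up to 0.1 mcg/kg/hr steps) until COWS total, a clinician-rated 11-item withdrawal scale, fell by half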
[3] = SDAT
[4] = test system: subjects suffering from schizophrenia; settings: for RASS values after infusion start: schizophrenia patients, per patient
[5] = test system: agitated subjects with senile dementia of Alzheimer's type; settings: human, in vivo
Method: Clinical assessments of cognitive functioning, alertness/awareness, balance and reaction time were performed prior to the IV infusion, at the end of infusion until the participant had reached their baseline parameters or, in the judgment of the principal investigator, the participant had reached a stable and acceptable level of arousal.
Time period at which clinical assessment of cognitive functioning, alertness/awareness, balance, and reaction time persist after drowsiness has resolved was assessed. Cognitive functioning, alertness/awareness, balance, and reaction time reached to their baseline level within around 45 minutes after drowsiness was resolved/recovered (see Table 7).

[6] = Post-ECG, After stopping of Dose

Cc1cccc([C@H](C)c2cnc[nH]2)c1C [dexmedetomidine hydrochloride]
time to mild sedation after starting the dose which produced the desired effect ([1]; Example 1A): ≤ 30 min
subjects in whom mild sedation (RASS score of −1) was evident ([1]; Example 1A, IV infusion 0.1-0.6 mcg/kg/hr): 11/12
Efficacy (Primary/secondary end points): subjects reaching RASS-1 ([1]; Healthy Volunteers Cohort 1): 6/6 RASS-1
Range of efficacious dose of IV dexmedetomidine hydrochloride ([1]; Healthy Volunteers Cohort 1, continuous infusion): 0.3 to 0.5 µg/kg/h
Efficacy (Primary/secondary end points): subjects reaching RASS-1 ([1]; Healthy Volunteers Cohort 2): 5/6 RASS-1
Range of efficacious dose of IV dexmedetomidine hydrochloride ([1]; Healthy Volunteers Cohort 2, continuous infusion): 0.3 to 0.4 µg/kg/h
Endpoint ([1]; healthy elderly volunteers, per subject, endpoint/stopping criterion reached): RASS −2; also recorded: RASS −1
IV infusion rate at which desired effect/stopping criteria achieved ([1]; healthy elderly volunteers, per subject, rate raised every 30 min): 0.3 mcg/kg/hr (4×) and 0.4 mcg/kg/hr (7×) and 0.5 mcg/kg/hr
effects on blood pressure and/or heart rate at exposure achieving mild sedation ([1]; in vivo): did not produce clinically meaningful effects on blood pressure and/or heart rate
tolerability ([1]; in vivo): well-tolerated
dose required by males compared to females ([1]; p<0.02, Sign test): twice
optimal starting dose ([1]; results of cohorts 1 and 2): 0.3 µg/kg/h
COW score ([2]; Day 1, Patient OP-1 (Treatment), 00:00 Hr): 9
COW score ([2]; Day 1, Patient OP-1 (Treatment), 00:15 Hr): 2
COW score ([2]; Day 1, Patient OP-1 (Treatment), 30 min. post Infusion): 0
COW score ([2]; Day 1, Patient OP-2 (Treatment), 00:00 Hr): 15
COW score ([2]; Day 1, Patient OP-2 (Treatment), 00:15 Hr): 11
COW score ([2]; Day 1, Patient OP-2 (Treatment), 00:30 Hr): 9
COW score ([2]; Day 1, Patient OP-2 (Treatment), 00:45 Hr): 12
COW score ([2]; Day 1, Patient OP-2 (Treatment), 01:00 Hr): 2
COW score ([2]; Day 1, Patient OP-2 (Treatment), 30 min. post Infusion): 16
COW score ([2]; Day 1, Patient OP-3 (Treatment), 00:00 Hr): 13
COW score ([2]; Day 1, Patient OP-3 (Treatment), 00:15 Hr): 8
COW score ([2]; Day 1, Patient OP-3 (Treatment), 00:30 Hr): 8
COW score ([2]; Day 1, Patient OP-3 (Treatment), 00:45 Hr): 4
COW score ([2]; Day 1, Patient OP-3 (Treatment), 30 min. post Infusion): 3
COW score ([2]; Day 1, Patient OP-6 (Treatment), 00:00 Hr): 11
COW score ([2]; Day 1, Patient OP-6 (Treatment), 00:15 Hr): 7
COW score ([2]; Day 1, Patient OP-6 (Treatment), 00:30 Hr): 2
COW score ([2]; Day 1, Patient OP-6 (Treatment), 30 min. post Infusion): 2
COW score ([2]; Day 1, Patient OP-7 (Treatment), 00:00 Hr): 10
COW score ([2]; Day 1, Patient OP-7 (Treatment), 00:15 Hr): 8
COW score ([2]; Day 1, Patient OP-7 (Treatment), 30 min. post Infusion): 0
COW score ([2]; Day 1, Patient OP-9 (Treatment), 00:00 Hr): 16
COW score ([2]; Day 1, Patient OP-9 (Treatment), 00:15 Hr): 13
COW score ([2]; Day 1, Patient OP-9 (Treatment), 00:30 Hr): 10
COW score ([2]; Day 1, Patient OP-9 (Treatment), 00:45 Hr): 9
COW score ([2]; Day 1, Patient OP-9 (Treatment), 01:00 Hr): 10
COW score ([2]; Day 1, Patient OP-9 (Treatment), 01:15 Hr): 6
COW score ([2]; Day 1, Patient OP-9 (Treatment), 30 min. post Infusion): 9
COW score ([2]; Day 1, Patient OP-10 (Treatment), 00:00 Hr): 10
COW score ([2]; Day 1, Patient OP-10 (Treatment), 00:15 Hr): 7
COW score ([2]; Day 1, Patient OP-10 (Treatment), 00:30 Hr): 1
COW score ([2]; Day 1, Patient OP-10 (Treatment), 30 min. post Infusion): 3
COW score ([2]; Day 1, Patient OP-11 (Treatment), 00:00 Hr): 16
COW score ([2]; Day 1, Patient OP-11 (Treatment), 00:15 Hr): 16
COW score ([2]; Day 1, Patient OP-11 (Treatment), 00:45 Hr): 13
COW score ([2]; Day 1, Patient OP-11 (Treatment), 01:00 Hr): 14
COW score ([2]; Day 1, Patient OP-11 (Treatment), 01:15 Hr): 10
COW score ([2]; Day 1, Patient OP-11 (Treatment), 01:30 Hr): 8
COW score ([2]; Day 1, Patient OP-11 (Treatment), 30 min. post Infusion): 8
COW score ([2]; Day 1, Patient OP-12 (Treatment), 00:00 Hr): 16
COW score ([2]; Day 1, Patient OP-12 (Treatment), 00:15 Hr): 12
COW score ([2]; Day 1, Patient OP-12 (Treatment), 00:30 Hr): 9
COW score ([2]; Day 1, Patient OP-12 (Treatment), 00:45 Hr): 9
COW score ([2]; Day 1, Patient OP-12 (Treatment), 01:00 Hr): 10
COW score ([2]; Day 1, Patient OP-12 (Treatment), 01:15 Hr): 9
COW score ([2]; Day 1, Patient OP-12 (Treatment), 01:30 Hr): 4
COW score ([2]; Day 1, Patient OP-12 (Treatment), 30 min. post Infusion): 5
COW score ([2]; Day 1, Patient OP-15 (Treatment), 00:00 Hr): 13
COW score ([2]; Day 1, Patient OP-15 (Treatment), 00:15 Hr): 8
COW score ([2]; Day 1, Patient OP-15 (Treatment), 00:30 Hr): 4
COW score ([2]; Day 1, Patient OP-15 (Treatment), 30 min. post Infusion): 4
COW score ([2]; Day 1, Patient OP-17 (Treatment), 00:00 Hr): 10
COW score ([2]; Day 1, Patient OP-17 (Treatment), 00:15 Hr): 11
COW score ([2]; Day 1, Patient OP-17 (Treatment), 00:30 Hr): 9
COW score ([2]; Day 1, Patient OP-17 (Treatment), 00:45 Hr): 8
COW score ([2]; Day 1, Patient OP-17 (Treatment), 01:00 Hr): 4
COW score ([2]; Day 1, Patient OP-17 (Treatment), 30 min. post Infusion): 5
COW score ([2]; Day 2, Patient OP-1 (Treatment), 00:00 Hr): 9
COW score ([2]; Day 2, Patient OP-1 (Treatment), 00:15 Hr): 8
COW score ([2]; Day 2, Patient OP-1 (Treatment), 00:30 Hr): 2
COW score ([2]; Day 2, Patient OP-1 (Treatment), last cell, 30 min. post Infusion): 0
COW score ([2]; Day 2, Patient OP-2 (Treatment), 00:00 Hr): 14
COW score ([2]; Day 2, Patient OP-2 (Treatment), 00:15 Hr): 11
COW score ([2]; Day 2, Patient OP-2 (Treatment), 00:30 Hr): 12
COW score ([2]; Day 2, Patient OP-2 (Treatment), 00:45 Hr): 10
COW score ([2]; Day 2, Patient OP-2 (Treatment), 01:00 Hr): 9
COW score ([2]; Day 2, Patient OP-2 (Treatment), 01:15 Hr): 7
COW score ([2]; Day 2, Patient OP-2 (Treatment), last cell, 30 min. post Infusion): 4
COW score ([2]; Day 2, Patient OP-3 (Treatment), 00:00 Hr): 10
COW score ([2]; Day 2, Patient OP-3 (Treatment), 00:15 Hr): 8
COW score ([2]; Day 2, Patient OP-3 (Treatment), 00:30 Hr): 6
COW score ([2]; Day 2, Patient OP-3 (Treatment), 00:45 Hr): 4
COW score ([2]; Day 2, Patient OP-3 (Treatment), last cell, 30 min. post Infusion): 4
COW score ([2]; Day 2, Patient OP-9 (Treatment), 00:30 Hr): 14
COW score ([2]; Day 2, Patient OP-9 (Treatment), 00:45 Hr): 14
COW score ([2]; Day 2, Patient OP-9 (Treatment), 01:00 Hr): 14
COW score ([2]; Day 2, Patient OP-9 (Treatment), 01:15 Hr): 12
COW score ([2]; Day 2, Patient OP-9 (Treatment), 01:30 Hr): 12
COW score ([2]; Day 2, Patient OP-9 (Treatment), 01:45 Hr): 12
COW score ([2]; Day 2, Patient OP-9 (Treatment), 02:00 Hr): 9
COW score ([2]; Day 2, Patient OP-9 (Treatment), last cell, 30 min. post Infusion): 9
COW score ([2]; Day 2, Patient OP-17 (Treatment), 00:00 Hr): 14
COW score ([2]; Day 2, Patient OP-17 (Treatment), 00:15 Hr): 14
COW score ([2]; Day 2, Patient OP-17 (Treatment), 00:30 Hr): 12
COW score ([2]; Day 2, Patient OP-17 (Treatment), 00:45 Hr): 11
COW score ([2]; Day 2, Patient OP-17 (Treatment), 01:00 Hr): 5
COW score ([2]; Day 2, Patient OP-17 (Treatment), last cell, 30 min. post Infusion): 5
Efficacy (Primary/secondary end points): subjects with COWS greater than or equal to 50% reduction ([2]; Opioid withdrawal Study): 11/11 COWS
Range of efficacious dose of IV dexmedetomidine hydrochloride ([2]; Opioid withdrawal Study, continuous infusion): 0.2 to 0.7 µg/kg/h
effect on physiological symptoms of opioid withdrawal (COWS) ([2]; opioid withdrawal): effectively mitigated the physiological symptoms of opioid withdrawal
subjects who achieved 50% reduction in COW score ([2]; opioid withdrawal, Day 1): 10 out of 10
optimal dose at 50% of the COW score achieved, Max ([2]; opioid withdrawal, Day 1, n=10): 0.4 µg/kg/h
optimal dose at 50% of the COW score achieved, Mean ± Sd (mean infusion rate) ([2]; opioid withdrawal, Day 1, n=10): 0.29 µg/kg/h
optimal dose at 50% of the COW score achieved, Median ([2]; opioid withdrawal, Day 1, n=10): 0.3 µg/kg/h
optimal dose at 50% of the COW score achieved, Min ([2]; opioid withdrawal, Day 1, n=10): 0.2 µg/kg/h
optimal dose at 50% of the COW score achieved, Mean ± Sd (mean infusion rate) ([2]; opioid withdrawal, Day 1, n=10, listed as Test): 0.29 ± 0.08 µg/kg/h
patients in the treatment arm who achieved 50% reduction in COW score ([2]; opioid withdrawal, Day 2): 5 out of 5
optimal dose at 50% of the COW score achieved, Max ([2]; opioid withdrawal, Day 2, n=5): 0.7 µg/kg/h
optimal dose at 50% of the COW score achieved, Mean ± Sd (mean infusion rate) ([2]; opioid withdrawal, Day 2, n=5): about 0.44 mcg/kg/hr
optimal dose at 50% of the COW score achieved, Median ([2]; opioid withdrawal, Day 2, n=5): 0.4 µg/kg/h
optimal dose at 50% of the COW score achieved, Min ([2]; opioid withdrawal, Day 2, n=5): 0.2 µg/kg/h
optimal dose at 50% of the COW score achieved, Mean ± Sd (mean infusion rate) ([2]; opioid withdrawal, Day 2, n=5, listed as Test): 0.44 ± 0.16 µg/kg/h
QTc interval, Max [3, 6]: 592
QTc interval, Mean ± SD [3, 6]: 462.9 ± 73.04
QTc interval, Median [3, 6]: 441.0
QTc interval, Min [3, 6]: 370
QTc interval, Max ([3]; Pre-ECG, Before Dosing): 524
QTc interval, Mean ± SD ([3]; Pre-ECG, Before Dosing): 447.2 ± 35.51
QTc interval, Median ([3]; Pre-ECG, Before Dosing): 444.3
QTc interval, Min ([3]; Pre-ECG, Before Dosing): 398
Efficacy (Primary/secondary end points): subjects reaching RASS-1 ([4]; Schizophrenia Study): 9/10 RASS-1
Range of efficacious dose of IV dexmedetomidine hydrochloride ([4]; Schizophrenia Study, continuous infusion): 0.2 to 0.4 µg/kg/h
patients in the treatment arm who achieved a RASS score of at least −1 ([4]; schizophrenia): 9 out of 10
RASS values after infusion start ([4]; infusion 15 minutes): −2 and −1
RASS values after infusion start ([4]; infusion 30 minutes): 0
RASS values after infusion start ([4]; infusion 75 minutes): −1
RASS values after infusion start ([4]; infusion 90 minutes): 0
RASS values after infusion start ([4]; infusion […]): 0
Mean infusion rate ([4]; schizophrenic patients): 0.36 µg/kg/h
Time for cognitive functioning, alertness/awareness, balance, reaction time to reach baseline after drowsiness [5]: 10 min
Time for cognitive functioning, alertness/awareness, balance, reaction time to reach baseline after drowsiness, Max [5]: 90 min
Time for cognitive functioning, alertness/awareness, balance, reaction time to reach baseline after drowsiness, Mean ± SD [5]: 42.9 ± 27.36 min
Time for cognitive functioning, alertness/awareness, balance, reaction time to reach baseline after drowsiness, Median [5]: 45 min
time for cognitive functioning, alertness/awareness, balance, reaction time to reach baseline level after drowsiness resolved [5]: ≤ 45 min
